Holding throughout (test): MIC by micro broth dilution
What all share (assay type): cell-based
A general note: Broth dilution looks for growth in wells or tubes with falling amounts of substance.

Test [1] deals with S. aureus MTCC 6908. Particulars: for MIC: Staphylococcus aureus, MTCC6908, read-out: Minimum inhibitory concentration (MIC). Here is the method: (§1) MIC of DART molecules were determined by micro broth dilution as per CLSI guidelines. Bacterial strains were cultured in Brain Heart Infusion Agar (BHIA) at 37° C. for 24 h. For MIC determination, BHI broth (100 μl) was added to each of the wells of a 96 well plate. 100 μl of broth containing drug was added to the first well (1A to 1H) and thereafter serial (double) dilutions were carried out for up to 10 wells (column 1 to column 10 of the 96 well plate). Bacterial inoculum was prepared by adjusting the bacterial culture turbidity to 0.5 McFarland standard (approximately 1.5×10^8 cells/ml) and further diluted (100 times with sterile BHI broth). Diluted bacterial suspension (100 μl) was added to each well except sterility control wells (column 12 of 96 well plate). The plates were incubated at 37° C. for 24 h. The MIC of the test compound was measured after addition of Alamar blue dye.

Test [2] has as its system S. epidermidis ATCC 35984. Particulars: for MIC: Staphylococcus epidermidis, ATCC35984, read-out: Minimum inhibitory concentration (MIC). Here is the method:
as §1

Test [3] concerns P. aeruginosa ATCC 27853. To be noted: for MIC: Pseudomonas aeruginosa, ATCC27853, read-out: Minimum inhibitory concentration (MIC). On the procedure:
as §1

The subject of test [4] is E. aerogenes NCIM 5139. To be noted: for MIC: Klebsiella aerogenes, NCIM5139, read-out: Minimum inhibitory concentration (MIC). Here is the method: as §1
Test [5] concerns S. aureus CCARM 3505. To be noted: for MIC: Staphylococcus aureus, CCARM3505, read-out: Minimum inhibitory concentration (MIC). On the procedure: as §1
The subject of test [6] is E. coli MTCC 1687. To be noted: for MIC: Escherichia coli, MTCC1687, read-out: Minimum inhibitory concentration (MIC). On the procedure: as §1
Test [7] has as its system E. aerogenes M2-1. Particulars: for MIC: Klebsiella aerogenes, M21, read-out: Minimum inhibitory concentration (MIC). On the procedure:
as §1

Test [8] has as its system E. coli BAA 196. Particulars: for MIC: Escherichia coli, BAA196, read-out: Minimum inhibitory concentration (MIC). On the procedure: as §1
Test [9] concerns S. aureus ATCC 43300. To be noted: S. aureus ATCC 43300; for MIC: Staphylococcus aureus, ATCC43300, read-out: Minimum inhibitory concentration (MIC). On the procedure:
as §1

In test [10] the test system is A. baumannii ATCC 1906. Particulars: for MIC: Acinetobacter baumannii, ATCC1906, read-out: Minimum inhibitory concentration (MIC). Here is the method: as §1
Test [11] relates to E. faecium NCIM 5421. Particulars: for MIC: Enterococcus faecium, NCIM5421, read-out: Minimum inhibitory concentration (MIC). On the procedure:
as §1

For test [12], the system named is S. epidermidis S12-1. Particulars: for MIC: Staphylococcus epidermidis, S121, read-out: Minimum inhibitory concentration (MIC). On the procedure: as §1
Test [13] deals with K. pneumonia ATCC 13883. To be noted: for activity in words: Klebsiella pneumonia (susceptible); for MIC: Klebsiella pneumoniae, ATCC13883, read-out: Minimum inhibitory concentration (MIC). Here is the method: as §1
The subject of test [14] is A. baumannii CCARM 12020. Here is the method:
as §1

For test [15], the system named is A. baumannii CCARM 12001. Here is the method: as §1
The test system of test [16] is P. aeruginosa CCARM 2204. To be noted: Pseudomonas aeruginosa, CCARM2204, read-out: Minimum inhibitory concentration (MIC). On the procedure:
as §1

≈ marks a conversion by molar mass, not a printed value.

Take `CC1Sc2c(C(=O)O)c(=O)c3cc(F)c(N4CCN(CC(=O)Nc5ncc([N+](=O)[O-])s5)CC4)cc3n21` (stereo not shown) [Compound 6, 6-Fluoro-1-methyl-7-(4-(2-((5-nitrothiazol-2-yl)amino)-2-oxoethyl)piperazin-1-yl)-4-oxo-1H,4H-[1,3]-thiazeto[3,2-a]quinoline-3-carboxylic acid]: the MIC was 0.1 µg/mL (≈ 0.187 µM) in [1]; under 0.03 µg/mL in [2]; 8 µg/mL (≈ 15 µM) in test [3]; 4 µg/mL (≈ 7.48 µM) in test [4]; 4 µg/mL (≈ 7.48 µM) in [5]; 1 µg/mL (≈ 1.87 µM) in [6]. Also, the MIC was 4 µg/mL (≈ 7.48 µM) in [7]; 16 µg/mL (≈ 29.9 µM) in [8]; under 0.13 µg/mL in [9]; 8 µg/mL (≈ 15 µM) in [10]; 0.25 µg/mL (≈ 0.468 µM) in test [11]; 4 µg/mL (≈ 7.48 µM) in test [12]. In test [13] (K. pneumonia ATCC 13883), the MIC came to 0.25 µg/mL (≈ 0.468 µM). In test [13], the activity in words result was “active”.
For `O=C(N[C@@H]1CCCCN(c2c(F)cc3c(=O)c(C(=O)O)cn(C4CC4)c3c2Cl)C1)c1ccc([N+](=O)[O-])o1` [Compound 16], the “Minimum inhibitory concentration (MIC)” value in test [1] was 0.25 µg/mL (≈ 0.469 µM); in [2], under 0.03 µg/mL; in test [3], 2 µg/mL (≈ 3.75 µM); in test [4], 2 µg/mL (≈ 3.75 µM); in [14], over 16 µg/mL; in test [5] it was 0.5 µg/mL (≈ 0.938 µM). Moreover, the “Minimum inhibitory concentration (MIC)” value is 4 µg/mL (≈ 7.51 µM) in test [6]; 4 µg/mL (≈ 7.51 µM) in test [7]; 16 µg/mL (≈ 30 µM) in [15]; over 16 µg/mL in test [8]; under 0.01 µg/mL in test [9]; “.05 µg/mL” in [10]. The “Minimum inhibitory concentration (MIC)” value in [11] was found to be 0.12 µg/mL (≈ 0.225 µM); in test [12] it was 0.13 µg/mL (≈ 0.244 µM); in test [13] (K. pneumonia ATCC 13883), 0.25 µg/mL (≈ 0.469 µM). The activity in words result in [13] was “active”.
Regarding `CC1Sc2c(C(=O)O)c(=O)c3cc(F)c(N4CCN(Cc5nc6ccc(N)cc6[nH]5)CC4)cc3n21` (stereo not shown) [Compound 20, 7-(4-((6-Amino-1H-benzo[d]imidazol-2-yl)methyl)piperazin-1-yl)-6-fluoro-1-methyl-4-oxo-1H,4H-[1,3]thiazeto[3,2-a]quinoline-3-carboxylic acid], the MIC in [1] was 8 µg/mL (≈ 16.2 µM); in test [2], 0.13 µg/mL (≈ 0.263 µM); in test [3], 4 µg/mL (≈ 8.09 µM); in test [4], 0.5 µg/mL (≈ 1.01 µM); in test [5], over 16 µg/mL; in [6], 1 µg/mL (≈ 2.02 µM). Also, the MIC in [7] was 4 µg/mL (≈ 8.09 µM); in [8], over 16 µg/mL; in test [9], 0.5 µg/mL (≈ 1.01 µM); in test [10], 8 µg/mL (≈ 16.2 µM); in [11], 1 µg/mL (≈ 2.02 µM); in test [12] it was over 16 µg/mL. Moreover, the MIC in test [13] (K. pneumonia ATCC 13883) turned out to be 0.25 µg/mL (≈ 0.506 µM). Besides, in [13], the activity in words result is “active”.
Turning to `CC1Sc2c(C(=O)O)c(=O)c3cc(F)c(N4CCN(C(=O)c5ccccn5)CC4)cc3n21` (stereo not shown) [Compound 31, 6-Fluoro-1-methyl-4-oxo-7-(4-picolinoylpiperazin-1-yl)-1H,4H-[1,3]thiazeto[3,2-a]quinoline-3-carboxylic acid], the MIC in test [1] worked out at 0.5 µg/mL (≈ 1.1 µM); in [2], 0.13 µg/mL (≈ 0.286 µM); in test [3], 8 µg/mL (≈ 17.6 µM); in [4], 1 µg/mL (≈ 2.2 µM); in test [5] it was 16 µg/mL (≈ 35.2 µM); in [6], 2 µg/mL (≈ 4.4 µM). For the same compound, the MIC is 8 µg/mL (≈ 17.6 µM) in [7]; 4 µg/mL (≈ 8.8 µM) in test [8]; 0.25 µg/mL (≈ 0.55 µM) in [9]; 2 µg/mL (≈ 4.4 µM) in [10]; 0.06 µg/mL (≈ 0.132 µM) in [11]; 8 µg/mL (≈ 17.6 µM) in test [12]. Further, the MIC in [13] (K. pneumonia ATCC 13883) came out at 0.12 µg/mL (≈ 0.264 µM). Further, the activity in words entry in test [13] is listed as “active”.
Turning to `CC1Sc2c(C(=O)O)c(=O)c3cc(F)c(N4CCN(C(=O)c5cccc[n+]5[O-])CC4)cc3n21` (stereo not shown) [Compound 34, 2-(4-(3-Carboxy-6-fluoro-1-methyl-4-oxo-1H,4H-[1,3]thiazeto[3,2-a]quinolin-7-yl)piperazine-1-carbonyl)pyridine-1-oxide], the MIC was 4 µg/mL (≈ 8.5 µM) in test [1]; 0.13 µg/mL (≈ 0.276 µM) in [2]; 8 µg/mL (≈ 17 µM) in [5]; over 16 µg/mL in test [6]; over 16 µg/mL in test [8]; 0.13 µg/mL (≈ 0.276 µM) in test [9]. For the same compound, the MIC in test [11] was determined as 1 µg/mL (≈ 2.13 µM); in [12], 8 µg/mL (≈ 17 µM).
For the compound `CC1Sc2c(C(=O)O)c(=O)c3cc(F)c(N4CCN(C(=O)CNC(=N)N)CC4)cc3n21` (stereo not shown) [Compound 43, 7-(4-(Carbamimidoylglycyl)piperazin-1-yl)-6-fluoro-1-methyl-4-oxo-1H,4H-[1,3]thiazeto[3,2-a]quinoline-3-carboxylic acid], the MIC in test [1] was 8 µg/mL (≈ 17.8 µM); in test [2], over 16 µg/mL; in [5] it was over 16 µg/mL; in test [6], 0.25 µg/mL (≈ 0.557 µM); in test [8], over 16 µg/mL; in [9], 8 µg/mL (≈ 17.8 µM). For the same compound, the MIC in test [11] and in test [12] was over 16 µg/mL throughout.
For the compound `CC1Sc2c(C(=O)O)c(=O)c3cc(F)c(N4CCN(C(=O)NC(=N)N)CC4)cc3n21` (stereo not shown) [Compound 44, 7-(4-(Carbamimidoylcarbamoyl)piperazin-1-yl)-6-fluoro-1-methyl-4-oxo-1H,4H-[1,3]thiazeto[3,2-a]quinoline-3-carboxylic acid], the MIC in test [1] is 8 µg/mL (≈ 18.4 µM); in test [2], 4 µg/mL (≈ 9.21 µM); in test [3], 4 µg/mL (≈ 9.21 µM); in test [4], 1 µg/mL (≈ 2.3 µM); in test [14] (Acinetobacter baumannii, CCARM12020, read-out: Minimum inhibitory concentration (MIC)), over 16 µg/mL; in [5] it was over 16 µg/mL. The MIC is 0.5 µg/mL (≈ 1.15 µM) in test [6]; 1 µg/mL (≈ 2.3 µM) in test [7]; over 16 µg/mL in [15] (Acinetobacter baumannii, CCARM12001, read-out: Minimum inhibitory concentration (MIC)); over 16 µg/mL in [8]; 4 µg/mL (≈ 9.21 µM) in [9]; over 16 µg/mL in [16]. In addition, the MIC in test [10] was 16 µg/mL (≈ 36.8 µM); in [11] it was over 16 µg/mL; in test [12], over 16 µg/mL; in [13] (K. pneumonia ATCC 13883), 0.12 µg/mL (≈ 0.276 µM).
On to `CC(=O)NC[C@H]1CN(c2ccc(N3CCN(C(=O)c4coc(N)n4)CC3)c(F)c2)C(=O)O1` [Compound 110, (S)—N-(3-{4-[4-(2-amino-oxazole-4-carbonyl)-piperazin-1-yl]-3-fluoro-phenyl}-2-oxo-oxazolidin-5-ylmethyl)-acetamide], for which the MIC in test [1], in test [2], in test [5], in test [9], in test [11] and in test [12] was over 16 µg/mL each time.
As for `CC1Sc2c(C(=O)O)c(=O)c3cc(F)c(N4CCN(C(=O)CNC(=O)c5cccc[n+]5[O-])CC4)cc3n21` (stereo not shown) [Compound 111, 2-((2-(4-(3-carboxy-6-fluoro-1-methyl-4-oxo-1H,4H-[1,3]thiazeto[3,2-a]quinolin-7-yl)piperazin-1-yl)-2-oxoethyl)carbamoyl)pyridine 1-oxide], the MIC in [1] was over 16 µg/mL; in test [2] it was over 16 µg/mL; in [5], over 16 µg/mL; in test [9], 16 µg/mL (≈ 30.3 µM); in test [11], over 16 µg/mL; in test [12], over 16 µg/mL.
As to `CC1Sc2c(C(=O)O)c(=O)c3cc(F)c(N4CCN(CC(=O)NC(=O)Nc5ccccc5)CC4)cc3n21` (stereo not shown) [Compound 112, 6-Fluoro-1-methyl-4-oxo-7-(4-(2-oxo-2-(3-phenylureido)ethyl)piperazin-1-yl)-1H,4H-[1,3]thiazeto-[3,2-a]quinoline-3-carboxylic acid], the MIC in [1] is 0.25 µg/mL (≈ 0.476 µM); in [2], 0.13 µg/mL (≈ 0.247 µM); in [5], over 16 µg/mL; in test [6], 1 µg/mL (≈ 1.9 µM); in [9], 0.13 µg/mL (≈ 0.247 µM); in [11], over 16 µg/mL. The MIC in test [12] was determined as 8 µg/mL (≈ 15.2 µM).

These data come from patent US10570152B2, “Antibacterial therapeutics and prophylactics” (VYOME BIOSCIENCES PVT. LTD., priority 2015, dated 2020).
